# Measurements from patent US7968508B2, “Benzophenone or benzoic acid anilide derivatives containing carboxyl groups as enzyme stabilizers” (priority 2007, dated 2011).
# Target: Bacillus lentus alkaline protease F49 (Lederbergia lenta, UniProt P29599, A188P/L211D/S3T/V193M/V199I)
# Assay: Residual protease activity in the presence of an inhibitor
# Type: biochemical
# Details: compound 10 mM; substrate AAPFpNA; pH 8.6, 25° C.
# Experimental: To verify that the compounds listed below have a protease activity-inhibiting effect, the residual proteolytic activity of the Bacillus lentus alkaline protease F49 (according to WO 95/23221 A1) was determined in the presence of these compounds.
# The substrate succinyl-alanine-alanine-proline-phenylalanine-para-nitroanilide (AAPFpNA; Bachem L-1400) and 5×10^−9 and/or 1×10^−8 M of the protease were placed in 100 mM Tris buffer. The compounds to be tested as listed in Table 1 were then added in a final concentration of 10 mM. Each was dissolved in anhydrous DMSO, correcting for the effect of DMSO on the enzymatic activity by means of a corresponding reference with the same amount of DMSO but without the respective compound. The batches were incubated for 5 minutes at pH 8.6 and 25° C., where 1 U corresponds to 1 μmol substrate cleaved per minute.
# Bacillus lentus alkaline protease F49, sequence (P29599 other isoform, or with tags, fused parts or gaps A188P/V193M/V199I/L211D): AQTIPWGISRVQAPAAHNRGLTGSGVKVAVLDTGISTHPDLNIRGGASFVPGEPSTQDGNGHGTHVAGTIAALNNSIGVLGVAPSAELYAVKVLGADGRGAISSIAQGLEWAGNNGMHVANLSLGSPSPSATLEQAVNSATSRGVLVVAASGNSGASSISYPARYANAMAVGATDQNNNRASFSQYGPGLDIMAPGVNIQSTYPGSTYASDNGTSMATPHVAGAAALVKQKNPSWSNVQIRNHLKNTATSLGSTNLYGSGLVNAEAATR
row,Compound,"relative strength as protease inhibitor and/or stabilizer (rank order V1, V2, V3, V4, V5)"
1,"O=C(O)c1cccc(NC(=O)c2ccccc2C(=O)O)c1 [V1, 2-[[(3-carboxyphenyl)amino]carbonyl]benzoic acid]",the strongest
2,"O=C(O)c1ccc(C(=O)c2ccccc2C(=O)O)cc1 [V4, 2-(4-carboxybenzoyl)benzoic acid]",practically just as good as V3
